# Laboratory results taken from patent US5112815A, “9α-hydroxy-3-oxo-4,24(25)-stigmastadien-26-oic acid derivatives, a process for preparing same and pharmaceutical compositions containing same” (Richer Gedeon Vegyeszet, priority 1989, dated 1992).
# Tests used:
# [1] = test system: cholesterol biosynthesis (rat liver homogenate); assay: Inhibition of cholesterol biosynthesis: incorporation of radiolabelled acetic acid into cholesterol in rat liver homogenate; format: biochemical, Hannover Wistar male rats; settings: 2 h at 37° C.
# Source text: The cholesterol-biosynthesis-inhibiting effect of the compounds according to the invention is illustrated by the example of 9 α-hydroxy-3-oxo-4,24(25)-stigmastadien-26-oic acid (I, wherein M stands for hydrogen). The inhibitory effect of this compound was compared with that of 3β-hydroxy-5α-cholest-8(14)-en-15-one (Colestolone) by the method of A. Endo and co-workers [Eur. J. Biochem. 77, 31 (1977); Biochem. Biophys. Acta 486, 71 (1977)] studying in rat liver homogenate the incorporation of radiolabelled acetic acid into cholesterol.
# Hannover Wistar male rats weighing 50-60 g were used for the experiment. Before the experiments the animals were fed for a week with rat chew enriched with 5% cholestyramine, in a reversed light cycle (light from 4 p.m. to 4 a.m., and dark from 4 a.m. to 4 p.m.). The food and water were available ad libitum.
# The animals were decapitated on the day of the experiment, Livers were immersed in ice cold Krebs/Ringer bicarbonate buffer (pH 7.4) and cut into small pieces. Using a tissue homogenizer in a gentle mode of operation we prepared a crude liver homogenate of which a portion equivalent to 100 mg of wet liver was weighed into glass-stoppered tubes. The operations were carried out under constant cooling. The incubation mixture included the liver homogenate, the Krebs/Ringer bicarbonate buffer, the sodium-(1-^14 C)acetate (supplied by IZINTA; specific activity: 14.86 MBq/mg) and the (^3 H)cholesterol oleate (supplied by Du Pont; specific activity: 3067 GBq/mmole). The steroids inhibiting cholesterol biosynthesis were added to the incubation mixture in an alcoholic solution containing albumin, as described by G. J. Schroepfer and co-workers [J. Biol. Chem. 24, 8975 (1977)]. The final volume of the incubation mixture was 2.0 ml. Incubation went on for 2 hours in a water bath of 37° C., then 2 ml of alcohol containing 15% (w/v) of KOH were added to the mixture, which was then kept at 70°-75° C. for further 2 hours. The lipids were extracted from the alkaline mixture by petroleum ether. After evaporation of the solvent in nitrogen stream the dry residue was dissolved in a mixture of acetone and ethanol, then the cholesterol was precipitated by a solution of digitonin. The precipitate was centrifuged and dissolved in scintillation cocktail. The activity was measured for 5 minutes using a Hitachi scintillation spectrometer.
# serum cholesterol = settings: several animal species and humans, literature; cited from earlier work
Structure (SMILES),"Inhibition, % ([1]; concentration 2.5 μM) [%]","Inhibition, % ([1]; concentration 10.0 μM) [%]",serum cholesterol-lowering effect (serum cholesterol)
"CC(C)CCC[C@@H](C)[C@H]1CC(=O)C2=C3CC[C@H]4C[C@@H](O)CC[C@]4(C)[C@H]3CC[C@@]21C [3β-Hydroxy-5α-cholest-8(14)-en-15-one, 3β-hydroxy-5α-cholest-8(14)-en-15-one]",16.6,55.0,significant serum cholesterol-lowering effect
"CCC(CC[C@@H](C)[C@H]1CC[C@H]2[C@@H]3CCC4=CC(=O)CC[C@]4(C)[C@@]3(O)CC[C@]12C)=C(C)C(=O)O [9α-hydroxy-3-oxo-4,24(25)-stigmastadien-26-oic acid]",65.3,86.3,
